Assay results published in patent US4154730A, “Novel 17-spirosultines” (Roussel Uclaf, priority 1976, dated 1979).

Assays:
[1] = system: activity of monoacetate of aldosterone (urinary sodium/potassium ratio); experiment: Antialdosteronic activity in surrenalectomized rats; type: in vivo, rat (Sprague Dawley); conditions: male surrenalectomized rats, test product 5 mg/kg subcutaneously, urine collected for 4 hours
Procedure: Male rats of the Sprague Dawley strain weighing about 180 g were subjected to surrenalectomy and at this moment, the rats received a drink of physiological serum. After about 2 days, the animals were fasted for 16 hours and then received a drink of an aqueous 5% glucose solution. The test products were administered subcutaneously at about 16 hours in the form of a solution or suspension in a 0.25% aqueous carboxymethyl cellulose solution containing Tween 80. One hour later, the animals received on the one hand intraperitoneally a hydrosaline surcharge at a dose of 5 ml/per rat of a 0.9% physiological serum and on the other hand subcutaneously 1 μg/kg of the monoacetate of aldosterone in a 2.5% alcoholic solution. The rats were placed in diuresis cages without food or drink for 4 hours and after this time, a forced urination was effected by pressure on the bladder. The volume of the obtained urine was adjusted to 50 ml and the amounts of sodium and potassium present was determined by an autoanalyzer. The results are expressed as a percentage of inhibition of the activity of 1 μg/kg of subcutaneously injected monoacetate of aldosterone by the ratio of sodium concentration to potassium concentration of the surrenalectomized rats.

[2] = target: T1, progesterone receptor (hormonal receptor of rabbit uterus cytosol) (Oryctolagus cuniculus, UniProt P06186); experiment: Progestomimetic activity by the method of hormonal receptors: displacement of tritiated product R in uterus cytosol; type: binding; conditions: tritiated 17,21-dimethyl-19-nor-Δ4,9-pregnadiene-3,20-dione, 0° C., 2 hours, progesterone = 100
T1 construct: The uterus was removed and homogenized in a buffered mixture; from tissue; host or cells: uterus cytosol (105,000 g supernatant) of impuberic rabbits primed with estradiol
T1 sequence (P06186 1-930): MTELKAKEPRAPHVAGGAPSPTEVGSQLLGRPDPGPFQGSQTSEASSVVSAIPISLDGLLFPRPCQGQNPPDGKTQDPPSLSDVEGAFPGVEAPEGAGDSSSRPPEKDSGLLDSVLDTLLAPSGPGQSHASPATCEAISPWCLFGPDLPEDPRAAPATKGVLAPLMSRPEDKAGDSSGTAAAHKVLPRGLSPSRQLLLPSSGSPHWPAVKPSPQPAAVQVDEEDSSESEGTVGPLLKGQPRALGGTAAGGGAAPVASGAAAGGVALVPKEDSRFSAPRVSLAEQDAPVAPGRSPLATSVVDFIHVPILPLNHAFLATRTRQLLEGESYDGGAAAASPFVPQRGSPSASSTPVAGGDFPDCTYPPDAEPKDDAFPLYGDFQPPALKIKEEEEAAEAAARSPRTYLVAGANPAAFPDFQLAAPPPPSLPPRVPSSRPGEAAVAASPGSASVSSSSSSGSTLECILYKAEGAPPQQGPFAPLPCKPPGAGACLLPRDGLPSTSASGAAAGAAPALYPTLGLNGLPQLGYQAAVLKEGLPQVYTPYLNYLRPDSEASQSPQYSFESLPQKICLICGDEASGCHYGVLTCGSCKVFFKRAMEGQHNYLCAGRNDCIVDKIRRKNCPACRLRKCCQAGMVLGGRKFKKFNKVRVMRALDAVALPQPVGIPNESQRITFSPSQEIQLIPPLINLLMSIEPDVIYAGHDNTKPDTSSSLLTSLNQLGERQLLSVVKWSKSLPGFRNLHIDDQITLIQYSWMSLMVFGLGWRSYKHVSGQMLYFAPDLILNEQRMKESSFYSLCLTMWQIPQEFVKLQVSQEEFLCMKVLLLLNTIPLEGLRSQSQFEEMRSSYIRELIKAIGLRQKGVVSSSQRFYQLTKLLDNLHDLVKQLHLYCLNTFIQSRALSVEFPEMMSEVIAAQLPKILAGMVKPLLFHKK
Procedure: Ster. Biochem., Vol. 6 (1975), p. 615-622 and Physiology and Genetics of Reproduction, part A (1975), p. 143-160]. Impuberic rabbits received percutaneously 25 γ of estradiol and 5 days later, the animals were killed. The uterus was removed and homogenized in a buffered mixture of 10 mM of tromethamine, 0.25 M of saccharose and sufficient hydrochloric acid for a pH of 7.4. The homogenate was centrifuged at 105,000 g for one hour and the liquid surnageant or cytosol was adjusted to obtain a dilution of 1:50 (weight of uterus to volume). […] B/T max. is the percentage of tritiated product R bound when no product was added and B/T min. is the percentage of tritiated product R bound when the maximum quantity of cold product R is added. The intersections of line I50 and the curves permit the determination of the CP and CX values. CP is the concentration of cold progesterone which inhibits by 50% the fixation of tritiated product R and CX is the concentration of test product which inhibits by 50% the fixation of tritiated product R. The relative affinity of the test product or RLA is determined by the formula [formula] and the results are reported in Table I.

Row | RLA (relative affinity of the test product, from CP and CX) [2] | Structure (SMILES) | percentage of inhibition of the activity of 1 μg/kg of subcutaneously injected monoacetate of aldosterone (sodium/potassium ratio) [1] [%]
1 | 280 | C[C@]12CCC3=C4CCC(=O)C=C4CC[C@H]3[C@@H]1CC[C@@]21CCS(=O)O1 (stereo partly drawn) [product A, B isomer of (17R) 2'-oxidospiro-[Δ^4,9-estradiene-17,5'-(1',2')-oxathiolane]-3-one] | 88
2 | 400 | C[C@]12C=CC3=C4CCC(=O)C=C4CC[C@H]3[C@@H]1CC[C@@]21CCS(=O)O1 (stereo partly drawn) [product B, B isomer of (17R) 2'-oxidospiro-[Δ^4,9,11-estratriene-17,5'-(1',2')-oxathiolane]-3-one] | –
